The source of these data is article PMC9019904, “AD Informer Set: Chemical tools to facilitate Alzheimer's disease drug discovery” (Alzheimer's & Dementia : Translational Research & Clinical …, 2022).

The test system of assay [1] is HMC3 (human microglia) cell line. As to the kind of experiment: pHrodo-myelin phagocytosis/cell viability high content imaging assay: viability (cell count, nuclear area, nuclear intensity). The note with it: 48 hours treatment. Put shortly:
(§1)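 Immortalized microglia are treated with compound (10 μM, single concentration) for 48 h, the final 20 h alongside pHrodo-myelin. Data are the mean of duplicates, reported as % of untreated control.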

In assay [2] the test system is BV2 (mouse microglia) cell line. Described as above. To be noted: 48 hours treatment. The procedure, abridged: as §1
The subject of assay [3] is HMC3 (human microglia) cell line. As to the kind of experiment: pHrodo-myelin phagocytosis/cell viability high content imaging assay: phagocytosis signal. The class given is cell-based. Put shortly:
(§2)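 Imaging at high content captured pHrodo-myelin uptake about 22 hours after its addition, alongside a viability read-out from the same cells. Three measurements were derived, with intensity increase marking early apoptosis and decrease marking later apoptosis.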

Assay [4] has as its system BV2 (mouse microglia) cell line. The description is as above. In kind it is cell-based. Put shortly:
as §2

The mark [5] stands for this setting: HMC3 cells, 10 uM compound, 48 hours treatment, pHrodo-myelin final 20 hours.
Setting [6] is: BV2 cells, 10 uM compound, 48 hours treatment, pHrodo-myelin final 20 hours.
The mark [7] stands for this setting: HMC3, compound 10 uM, pHrodo-myelin.
[8] abbreviates: BV2, compound 10 uM, pHrodo-myelin.

Consider `Cc1cnc(Nc2ccc(F)cc2Cl)nc1-c1c[nH]c(C(=O)N[C@H](CO)c2cccc(Cl)c2)c1` [UNC10302866A], for which, in assay [1] (HMC3 cells, 10 uM compound), the “1. Cell count (% control)” value was found to be 106.8 % control, the “2. Nuclear Area (% Control)” value stood at 98.0 % Control and the “3. Nuclear DNA Intensity (% control)” value was determined as 96.6 % control. In assay [2] (BV2 cells, 10 uM compound), the “1. Cell count (% control)” value is reported as 83.7 % control, the “2. Nuclear Area (% Control)” value was 101.5 % Control and the “3. Nuclear DNA Intensity (% control)” value is on record as 113.9 % control. For the same compound, in assay [3] (setting [5]), the “4. Phagocytosis (% control)” value is given as 72.8 % control. Besides, the “4. Phagocytosis (% control)” value in assay [4] (setting [6]) is listed as 108.3 % control.

As for `CCN(CC)c1ccc(/C=N/NC(=O)c2ccc(O)cc2)cc1` [UNC10302868A], in assay [1] (HMC3 cells, 10 uM compound), the “1. Cell count (% control)” value was determined as 102.3 % control, the “2. Nuclear Area (% Control)” value came out at 101.3 % Control and the “3. Nuclear DNA Intensity (% control)” value amounted to 100.0 % control. For the same compound, in assay [2] (BV2 cells, 10 uM compound), the “1. Cell count (% control)” value is 64.8 % control, the “2. Nuclear Area (% Control)” value was 105.9 % Control and the “3. Nuclear DNA Intensity (% control)” value is 100.1 % control. Also, the “4. Phagocytosis (% control)” value in assay [3] (setting [5]) is 65.0 % control. Also, the “4. Phagocytosis (% control)” value in assay [4] (setting [6]) was 142.8 % control.

On to `CC(C)Nc1cc(-c2c[nH]c(C(=O)N[C@H](CO)c3cccc(Cl)c3)c2)c(Cl)cn1` [UNC10302869A], for which the “1. Cell count (% control)” value in assay [1] (HMC3 cells, 10 uM compound) is given as 116.3 % control; in assay [2] (BV2 cells, 10 uM compound), 44.0 % control. Besides, the “2. Nuclear Area (% Control)” value in assay [1] (HMC3 cells, 10 uM compound) was determined as 105.5 % Control; in assay [2] (BV2 cells, 10 uM compound) it was 125.5 % Control. Besides, the “3. Nuclear DNA Intensity (% control)” value in assay [1] (HMC3 cells, 10 uM compound) is given as 89.1 % control; in assay [2] (BV2 cells, 10 uM compound), 96.6 % control. Moreover, the “4. Phagocytosis (% control)” value is reported as 59.0 % control in assay [3] (setting [5]) and 222.2 % control in assay [4] (setting [6]).

As for `CC(C)CCN1c2nc(Nc3cc(F)c(O)c(F)c3)ncc2N(C)C(=O)C1C` (stereo not drawn) [UNC10302870A], the “1. Cell count (% control)” value in assay [1] (HMC3, compound 10 uM) is 49.2 % control; in assay [2] (BV2, compound 10 uM), 15.1 % control. Also, the “2. Nuclear Area (% Control)” value in assay [1] (HMC3, compound 10 uM) stood at 127.1 % Control; in assay [2] (BV2, compound 10 uM), 106.7 % Control. For the same compound, the “3. Nuclear DNA Intensity (% control)” value came to 123.8 % control in assay [1] (HMC3, compound 10 uM) and 111.0 % control in assay [2] (BV2, compound 10 uM). In addition, the “4. Phagocytosis (% control)” value is recorded as 178.1 % control in assay [3] (setting [7]) and 123.8 % control in assay [4] (setting [8]).

Regarding `Oc1c(F)cc(-c2cnccc2-c2ccc(N3CCOCC3)cc2)cc1F` [UNC10302871A], in assay [1] (HMC3, compound 10 uM), the “1. Cell count (% control)” value is recorded as 123.1 % control, the “2. Nuclear Area (% Control)” value is 101.3 % Control and the “3. Nuclear DNA Intensity (% control)” value came to 92.9 % control. Besides, in assay [2] (BV2, compound 10 uM), the “1. Cell count (% control)” value is on record as 98.2 % control, the “2. Nuclear Area (% Control)” value worked out at 107.6 % Control and the “3. Nuclear DNA Intensity (% control)” value was 98.3 % control. The “4. Phagocytosis (% control)” value in assay [3] (setting [7]) was 84.7 % control. The “4. Phagocytosis (% control)” value in assay [4] (setting [8]) is reported as 174.2 % control.

In the case of `C=C1C(=O)[C@]23[C@H](O)[C@H]1CC[C@H]2[C@@]12CO[C@]3(O)[C@@H](O)[C@@H]1C(C)(C)CC[C@@H]2O` [UNC10302873A], in assay [1] (HMC3, compound 10 uM), the “1. Cell count (% control)” value was 42.7 % control, the “2. Nuclear Area (% Control)” value is 59.1 % Control and the “3. Nuclear DNA Intensity (% control)” value came to 208.5 % control. For the same compound, in assay [2] (BV2, compound 10 uM), the “1. Cell count (% control)” value was found to be 12.1 % control, the “2. Nuclear Area (% Control)” value worked out at 120.3 % Control and the “3. Nuclear DNA Intensity (% control)” value is reported as 80.8 % control. The “4. Phagocytosis (% control)” value in assay [3] (setting [7]) is listed as 0.0307 % control. In assay [4] (setting [8]), the “4. Phagocytosis (% control)” value amounted to 153.4 % control.

With `Cc1ccc(F)c(NC(=O)Nc2ccc(-c3cccc4[nH]nc(N)c34)cc2)c1` [UNC10302874A], in assay [1] (HMC3, compound 10 uM), the “1. Cell count (% control)” value was 43.1 % control, the “2. Nuclear Area (% Control)” value came to 121.8 % Control and the “3. Nuclear DNA Intensity (% control)” value is listed as 105.6 % control. In assay [2] (BV2, compound 10 uM), the “1. Cell count (% control)” value was found to be 24.4 % control, the “2. Nuclear Area (% Control)” value turned out to be 127.6 % Control and the “3. Nuclear DNA Intensity (% control)” value was 103.1 % control. In addition, in assay [3] (setting [7]), the “4. Phagocytosis (% control)” value was 29.4 % control. Further, the “4. Phagocytosis (% control)” value in assay [4] (setting [8]) is recorded as 235.2 % control.

Consider `O=S(=O)(c1ccccc1)N(CC(F)(F)F)c1ccc(C(O)(C(F)(F)F)C(F)(F)F)cc1` [UNC10302875A], for which, in assay [1] (HMC3 cells, 10 uM compound), the “1. Cell count (% control)” value is recorded as 121.7 % control, the “2. Nuclear Area (% Control)” value is given as 100.6 % Control and the “3. Nuclear DNA Intensity (% control)” value is listed as 97.9 % control. Besides, in assay [2] (BV2 cells, 10 uM compound), the “1. Cell count (% control)” value is listed as 109.2 % control, the “2. Nuclear Area (% Control)” value was found to be 107.3 % Control and the “3. Nuclear DNA Intensity (% control)” value was determined as 110.7 % control. Besides, the “4. Phagocytosis (% control)” value in assay [3] (setting [5]) is given as 59.3 % control. For the same compound, in assay [4] (setting [6]), the “4. Phagocytosis (% control)” value was 216.4 % control.

On to `O=C(N/N=C/c1ccc(Cl)cc1)c1ccccc1` [UNC10302877A], for which, in assay [1] (HMC3 cells, 10 uM compound), the “1. Cell count (% control)” value worked out at 103.0 % control, the “2. Nuclear Area (% Control)” value is recorded as 94.5 % Control and the “3. Nuclear DNA Intensity (% control)” value came out at 106.0 % control. In addition, in assay [2] (BV2 cells, 10 uM compound), the “1. Cell count (% control)” value amounted to 100.1 % control, the “2. Nuclear Area (% Control)” value was found to be 103.0 % Control and the “3. Nuclear DNA Intensity (% control)” value is 107.1 % control. Further, the “4. Phagocytosis (% control)” value in assay [3] (setting [5]) is listed as 87.3 % control. The “4. Phagocytosis (% control)” value in assay [4] (setting [6]) turned out to be 104.1 % control.

On to `CC(C)c1ccc(/C=N/NC(=O)c2ccc(O)cc2)cc1` [UNC10302878A], for which, in assay [1] (HMC3 cells, 10 uM compound), the “1. Cell count (% control)” value is 137.1 % control, the “2. Nuclear Area (% Control)” value worked out at 101.0 % Control and the “3. Nuclear DNA Intensity (% control)” value is 96.0 % control. Besides, in assay [2] (BV2 cells, 10 uM compound), the “1. Cell count (% control)” value is listed as 104.0 % control, the “2. Nuclear Area (% Control)” value came out at 103.1 % Control and the “3. Nuclear DNA Intensity (% control)” value turned out to be 108.0 % control. Further, in assay [3] (setting [5]), the “4. Phagocytosis (% control)” value is 80.2 % control. The “4. Phagocytosis (% control)” value in assay [4] (setting [6]) came to 129.4 % control.

For the compound `c1ccc(CNc2nc(NCc3ccccc3)c3ccccc3n2)cc1` [UNC10302879A], in assay [1] (HMC3 cells, 10 uM compound), the “1. Cell count (% control)” value is 28.2 % control, the “2. Nuclear Area (% Control)” value came out at 43.8 % Control and the “3. Nuclear DNA Intensity (% control)” value came out at 179.2 % control. In assay [2] (BV2 cells, 10 uM compound), the “1. Cell count (% control)” value was found to be 27.3 % control, the “2. Nuclear Area (% Control)” value turned out to be 94.3 % Control and the “3. Nuclear DNA Intensity (% control)” value is listed as 65.0 % control. In assay [3] (setting [5]), the “4. Phagocytosis (% control)” value is reported as 0.0516 % control. The “4. Phagocytosis (% control)” value in assay [4] (setting [6]) is given as 0.00106 % control.

Regarding `Cc1cc(NC(=O)Nc2ccccc2)n(-c2ccccc2)n1` [UNC10302880A], in assay [1] (HMC3 cells, 10 uM compound), the “1. Cell count (% control)” value is 145.4 % control, the “2. Nuclear Area (% Control)” value is on record as 97.9 % Control and the “3. Nuclear DNA Intensity (% control)” value was 96.8 % control. Besides, in assay [2] (BV2 cells, 10 uM compound), the “1. Cell count (% control)” value stood at 120.0 % control, the “2. Nuclear Area (% Control)” value is given as 104.5 % Control and the “3. Nuclear DNA Intensity (% control)” value is on record as 102.6 % control. In addition, in assay [3] (setting [5]), the “4. Phagocytosis (% control)” value was 71.0 % control. For the same compound, the “4. Phagocytosis (% control)” value in assay [4] (setting [6]) is reported as 135.3 % control.
